From ChEMBL document CHEMBL1201862, “PubChem BioAssay data set” (2004)
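How tested: cells in 96-well plates exposed to compound for 48 hours at five concentrations. Here, GI50 denotes the concentration required for 50% inhibition of growth.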 Calls of active or inactive are those of the source. Rule as the data show it: active = GI50 up to about 1.1 µM and inactive = higher.

Assays:
Assay in all cases: growth of human tumour cells (NCI), 48 h
[1] = test system: HOP-62
[2] = test system: Hs-578T
[3] = test system: SK-MEL-28
[4] = test system: NCI-H522
[5] = test system: MDA-MB-435
[6] = test system: NCI-H226
[7] = test system: DU-145
[8] = test system: BT-549
[9] = test system: SR
[10] = test system: MDA-MB-231
[11] = test system: OVCAR-8
[12] = test system: 786-0
[13] = test system: SK-MEL-5
[14] = test system: SW-620
[15] = test system: MDA-N
[16] = test system: ACHN
[17] = test system: HOP-92
[18] = test system: TK-10
[19] = test system: LOX IMVI

| SMILES | GI50 [1] | GI50 [2] | GI50 [3] | GI50 [4] | GI50 [5] | GI50 [6] | GI50 [7] | GI50 [8] | GI50 [9] | GI50 [10] | GI50 [11] | GI50 [12] | GI50 [13] | GI50 [14] | GI50 [15] | GI50 [16] | GI50 [17] | GI50 [18] | GI50 [19] |
| --- | --- | --- | --- | --- | --- | --- | --- | --- | --- | --- | --- | --- | --- | --- | --- | --- | --- | --- | --- |
| C=C1C(=O)O[C@H]2[C@@H](O)[C@H](C)CCC[C@]3(C)O[C@H]3CC[C@@]3(C)O[C@@H]3C[C@@H]12 | 7.4 µM (inactive) | 7.59 µM (inactive) | 2.83 µM (inactive) | 1.12 µM (inactive) | 3.74 µM (inactive) | 7.43 µM (inactive) | 6.52 µM (inactive) | 1.24 µM (inactive) | 1.43 µM (inactive) | 4.08 µM (inactive) | 6.25 µM (inactive) | 5.15 µM (inactive) | 4.04 µM (inactive) | 1.52 µM (inactive) |  |  |  |  |  |
| Cc1ccc(-c2c(C#N)c(-c3ccccc3)n(NS(=O)(=O)c3ccccc3)c(=O)c2C#N)cc1 | 64.7 µM (inactive) |  | > 100 µM (inactive) | 88.1 µM (inactive) | 99.8 µM (inactive) | > 100 µM (inactive) |  | 64 µM (inactive) |  | > 100 µM (inactive) | > 100 µM (inactive) | > 100 µM (inactive) | 34.6 µM (inactive) | 86.3 µM (inactive) | 92.7 µM (inactive) | > 100 µM (inactive) | 61.5 µM (inactive) | > 100 µM (inactive) | 51.1 µM (inactive) |
| Cc1cc(C)c2c(c1)C/C(=C\c1cccc(C)c1C(=O)O)C2=O | 55 µM (inactive) |  | 87.9 µM (inactive) | 30.8 µM (inactive) |  | 44.2 µM (inactive) | 52.2 µM (inactive) | 42.9 µM (inactive) | > 100 µM (inactive) | 36.1 µM (inactive) | 52.7 µM (inactive) | 57.3 µM (inactive) | 34.7 µM (inactive) | 64.4 µM (inactive) | 35.3 µM (inactive) | 87.7 µM (inactive) | > 100 µM (inactive) | > 100 µM (inactive) | 69.5 µM (inactive) |
| O=C1C=C/C(=N\N=C(c2ccccc2)c2ccccc2)O1 | > 10 µM (inactive) |  | > 10 µM (inactive) |  | > 10 µM (inactive) |  | > 10 µM (inactive) |  | > 10 µM (inactive) | > 10 µM (inactive) | > 10 µM (inactive) | > 10 µM (inactive) | > 10 µM (inactive) | > 10 µM (inactive) | > 10 µM (inactive) |  | > 10 µM (inactive) | > 10 µM (inactive) | > 10 µM (inactive) |
| CCOP(=O)(OCC)C1CC(O)CN1OC(=O)C(C)(C)C (centres undefined) | > 100 µM (inactive) | > 100 µM (inactive) | > 100 µM (inactive) |  | > 100 µM (inactive) | > 100 µM (inactive) | > 100 µM (inactive) |  | > 100 µM (inactive) | > 100 µM (inactive) | > 100 µM (inactive) | > 100 µM (inactive) | > 100 µM (inactive) | > 100 µM (inactive) | > 100 µM (inactive) | > 100 µM (inactive) |  | > 100 µM (inactive) | > 100 µM (inactive) |
| O=C(OCC(Cl)(Cl)Cl)N1CC[C@H](C2CCCCC2)C1 | 18.3 µM (inactive) |  |  | 17.1 µM (inactive) |  |  | 15.8 µM (inactive) | 24.2 µM (inactive) | 16.3 µM (inactive) | 35.5 µM (inactive) |  | 16.7 µM (inactive) | 14.9 µM (inactive) |  | 34.9 µM (inactive) | 19.3 µM (inactive) |  | 18.8 µM (inactive) | 19.5 µM (inactive) |
| COC(=O)C1CCC(=O)N1C(c1cc(OC)c(OC)c(OC)c1)c1cccc2ccccc12 (centres undefined) | > 100 µM (inactive) | 6.44 µM (inactive) | > 100 µM (inactive) | 51.5 µM (inactive) | 63.2 µM (inactive) | > 100 µM (inactive) | > 100 µM (inactive) |  | 32.7 µM (inactive) | > 100 µM (inactive) | > 100 µM (inactive) | > 100 µM (inactive) |  | > 100 µM (inactive) | 60.5 µM (inactive) | > 100 µM (inactive) | 38.2 µM (inactive) | > 100 µM (inactive) | > 100 µM (inactive) |
| [C-]#[N+]C1(C(=O)OCC)CC1 | > 100 µM (inactive) | > 100 µM (inactive) | > 100 µM (inactive) | > 100 µM (inactive) | > 100 µM (inactive) | > 100 µM (inactive) | > 100 µM (inactive) |  | > 100 µM (inactive) |  | > 100 µM (inactive) | > 100 µM (inactive) | > 100 µM (inactive) | > 100 µM (inactive) | > 100 µM (inactive) | > 100 µM (inactive) | > 100 µM (inactive) | > 100 µM (inactive) | > 100 µM (inactive) |
| COC(=O)C(NC(=O)C12CCC(C)(C(=O)O1)C2(C)C)c1cc(C(C)(C)C)c(O)c(C(C)(C)C)c1 (centres undefined) | > 100 µM (inactive) | 94 µM (inactive) | > 100 µM (inactive) | > 100 µM (inactive) | > 100 µM (inactive) | > 100 µM (inactive) | > 100 µM (inactive) | > 100 µM (inactive) | 68.2 µM (inactive) | > 100 µM (inactive) | > 100 µM (inactive) | > 100 µM (inactive) | 21.7 µM (inactive) | 77.3 µM (inactive) |  | > 100 µM (inactive) | > 100 µM (inactive) | 57.7 µM (inactive) | > 100 µM (inactive) |
| CC(C)(C)NC1C2CCC(C)(C1O)C2(C)C (centres undefined) | > 100 µM (inactive) |  | > 100 µM (inactive) |  | > 100 µM (inactive) |  | > 100 µM (inactive) | > 100 µM (inactive) | > 100 µM (inactive) | > 100 µM (inactive) | > 100 µM (inactive) | > 100 µM (inactive) | > 100 µM (inactive) | > 100 µM (inactive) |  | 8.63 µM (inactive) |  | > 100 µM (inactive) | > 100 µM (inactive) |
| Cn1c2ccccc2c2nc3ccccc3c(Cl)c21 | > 100 µM (inactive) | > 100 µM (inactive) | > 100 µM (inactive) | > 100 µM (inactive) | > 100 µM (inactive) | > 100 µM (inactive) | > 100 µM (inactive) | > 100 µM (inactive) | > 100 µM (inactive) | > 100 µM (inactive) | > 100 µM (inactive) | > 100 µM (inactive) |  | > 100 µM (inactive) |  |  | > 10 µM (inactive) | > 100 µM (inactive) | > 100 µM (inactive) |
| ClCCCC1COc2ccccc2O1 (centres undefined) | > 100 µM (inactive) |  | > 100 µM (inactive) | > 100 µM (inactive) |  | > 100 µM (inactive) | > 100 µM (inactive) | 23.1 µM (inactive) | > 100 µM (inactive) |  | > 100 µM (inactive) | > 100 µM (inactive) | > 100 µM (inactive) | > 100 µM (inactive) | > 100 µM (inactive) | > 100 µM (inactive) | 43.6 µM (inactive) | > 100 µM (inactive) |  |
| CCOc1ccc(N2C(=O)C3c4[nH]c5ccccc5c4C4CCC(C(C)(C)C)CC4C3C2=O)cc1 (centres undefined) | > 100 µM (inactive) |  | > 100 µM (inactive) | 66.7 µM (inactive) |  | 56.5 µM (inactive) |  |  | 42.8 µM (inactive) |  | 97.1 µM (inactive) | 50.6 µM (inactive) | > 100 µM (inactive) | > 100 µM (inactive) |  | 57.5 µM (inactive) | > 100 µM (inactive) |  |  |
| COc1cc(CNC2=NCCC2)cc(OC)c1OC | > 100 µM (inactive) |  | > 100 µM (inactive) | > 100 µM (inactive) |  | > 100 µM (inactive) | > 100 µM (inactive) | > 100 µM (inactive) |  |  | > 100 µM (inactive) | > 100 µM (inactive) | > 100 µM (inactive) | > 100 µM (inactive) | 34.5 µM (inactive) | > 100 µM (inactive) | > 100 µM (inactive) | > 100 µM (inactive) |  |
| COc1cc(O)c(C(=O)CC(C)=O)c(OC)c1 | > 100 µM (inactive) |  | > 100 µM (inactive) | > 100 µM (inactive) |  | > 100 µM (inactive) |  |  |  |  | > 100 µM (inactive) | > 100 µM (inactive) | > 100 µM (inactive) | > 100 µM (inactive) |  | > 100 µM (inactive) |  | > 100 µM (inactive) | > 100 µM (inactive) |
| N#Cc1cccc2c1Sc1ccccc1N2 |  | 0.397 µM (active) |  |  | 27.3 µM (inactive) | 29.3 µM (inactive) | 40.6 µM (inactive) | 28.4 µM (inactive) | 33.7 µM (inactive) | 24.5 µM (inactive) | 29.5 µM (inactive) | 30.2 µM (inactive) | 0.553 µM (active) | 20.7 µM (inactive) |  | 33.4 µM (inactive) | 32.3 µM (inactive) | 17.1 µM (inactive) | 10.4 µM (inactive) |
| CS/C(=N/S(=O)(=O)c1ccc(Cl)cc1)NCCCN/C(=N\S(=O)(=O)c1ccc(Cl)cc1)SC | 24.8 µM (inactive) |  | 25.8 µM (inactive) |  | 9.42 µM (inactive) |  | 23.6 µM (inactive) |  | 4.34 µM (inactive) | 6.21 µM (inactive) | 19.8 µM (inactive) | 25.2 µM (inactive) |  | 45.6 µM (inactive) | 12.1 µM (inactive) | 12.1 µM (inactive) | 1.81 µM (inactive) | 14.5 µM (inactive) | 14 µM (inactive) |
| C=C1C(=O)O[C@H]2[C@H]3O[C@@H](C[C@@H]12)[C@](C)(O)CC[C@@H]1O[C@@]1(C)CCC[C@H]3C | 78.3 µM (inactive) | 30.3 µM (inactive) | 32 µM (inactive) | 18.1 µM (inactive) | 17.1 µM (inactive) | 23.3 µM (inactive) | 12.6 µM (inactive) | 12.2 µM (inactive) | 16.5 µM (inactive) | 25.1 µM (inactive) | 15.7 µM (inactive) | 11.7 µM (inactive) | 14.7 µM (inactive) | 19.2 µM (inactive) |  | 15.5 µM (inactive) | 16.4 µM (inactive) | 17.1 µM (inactive) | 16 µM (inactive) |
